Columns and labels:
barnyardgrass [1] = assay: Test B pre-/postemergence herbicide test; type: in vivo, Echinochloa crus-galli; conditions: for Plant response rating (0 to 100 scale), Barnyardgrass: 0 is no effect, 100 is complete control, preemergence; for Barnyardgrass plant response rating: Postemergence, scale 0 (no effect) to 100 (complete control)
Method in brief: (§1)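 Response was scored visually 13 to 15 days after treatment against untreated greenhouse controls, 0 meaning no effect and 100 complete control. Formulations (solvent mixture plus surfactant) went onto soil after planting, onto foliage of 1- to 4-leaf plants, and onto 2-leaf plants in a flooded paddy set including rice and barnyardgrass.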

Surinam grass = assay: Test B pre-/postemergence herbicide test; type: in vivo, Urochloa decumbens; conditions: for Plant response rating (0 to 100 scale), Surinam Grass: 0 is no effect, 100 is complete control, preemergence
Method in brief: (§2)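 Herbicidal effect was judged by eye on a 0–100 scale after plants stood 13 to 15 days in the greenhouse following pre- or postemergence treatment with surfactant-containing formulations.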

cocklebur = assay: Test B pre-/postemergence herbicide test; type: in vivo, Xanthium strumarium; conditions: for Plant response rating (0 to 100 scale), Cocklebur: 0 is no effect, 100 is complete control, preemergence
Method in brief: as §1

corn = assay: Test B pre-/postemergence herbicide test; type: in vivo, Zea mays; conditions: for Plant response rating (0 to 100 scale), Corn: 0 is no effect, 100 is complete control, preemergence
Method in brief: as §2

large crabgrass = assay: Test B pre-/postemergence herbicide test; type: in vivo, Digitaria sanguinalis; conditions: for Plant response rating (0 to 100 scale), Crabgrass, Large: 0 is no effect, 100 is complete control, preemergence
Method in brief: as §2

giant foxtail = assay: Test B pre-/postemergence herbicide test; type: in vivo, Setaria faberi; conditions: for Plant response rating (0 to 100 scale), Foxtail, Giant: 0 is no effect, 100 is complete control, preemergence
Method in brief: as §2

lambsquarters = assay: Test B pre-/postemergence herbicide test; type: in vivo, Chenopodium album
Method in brief: as §2

morningglory = assay: Test B pre-/postemergence herbicide test; type: in vivo, Ipomoea coccinea; conditions: for Plant response rating (0 to 100 scale), Morningglory: 0 is no effect, 100 is complete control, preemergence
Method in brief: as §1

pigweed = assay: Test B pre-/postemergence herbicide test; type: in vivo, Amaranthus retroflexus; conditions: for Plant response rating (0 to 100 scale), Pigweed: 0 is no effect, 100 is complete control, preemergence
Method in brief: as §2

velvetleaf = assay: Test B pre-/postemergence herbicide test; type: in vivo, Abutilon theophrasti; conditions: for Plant response rating (0 to 100 scale), Velvetleaf: 0 is no effect, 100 is complete control, preemergence
Method in brief: as §2

blackgrass = assay: Test B postemergence herbicide test; type: in vivo, Alopecurus myosuroides
Method in brief: (§3)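 Visual control ratings, 0–100 versus untreated controls, taken after 13 to 15 days in the greenhouse. Blackgrass received a postemergence spray at the 1- to 4-leaf stage (2–18 cm); ducksalad, umbrella sedge and barnyardgrass were flooded-paddy treated at 2 leaves.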

wheat = assay: Test B postemergence herbicide test; type: in vivo, Triticum aestivum; parameters: key to Wheat plant response rating: 0 = no effect, 100 = complete control
Method in brief: (§4)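 Treated at 2-leaf (paddy) or 1–4-leaf, 2–18 cm (postemergence); greenhouse 13–15 d; visual score vs control, 0 none to 100 complete control; dash = not tested.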

wild oat = assay: Test B postemergence herbicide test; type: in vivo, Avena fatua
Method in brief: as §4

rice = assay: Test B flooded paddy test; type: in vivo, Oryza sativa; conditions: 1000 g ai/ha, scale 0 to 100 (0 no effect, 100 complete control)
Method in brief: as §4

[2] = system: small flower umbrella sedge; assay: Test B flooded paddy test; type: in vivo, Cyperus difformis; conditions: 1000 g ai/ha, scale 0 to 100 (0 no effect, 100 complete control)
Method in brief: as §3

ducksalad = assay: Test B flooded paddy test; type: in vivo, Heteranthera limosa; conditions: 1000 g ai/ha, scale 0 to 100 (0 no effect, 100 complete control)
Method in brief: as §3

barnyardgrass [3] = assay: Test B flooded paddy test; type: in vivo, Echinochloa crus-galli; conditions: 1000 g ai/ha, scale 0 to 100 (0 no effect, 100 complete control)
Method in brief: as §3

[4] = Postemergence, 500 g ai/ha, scale 0 (no effect) to 100 (complete control)
[5] = postemergence, 125 g ai/ha, scale 0 to 100
[6] = 500 g ai/ha, scale 0 to 100, 0 no effect, 100 complete control, preemergence

Compound: CCc1nn(C(C)(C)C)nc1C(=O)Nc1cccc(C(=O)N2CCCCC2)c1 [Compound 416]
- Plant response rating (0 to 100 scale), Barnyardgrass (barnyardgrass [1]; 125 g ai/ha): 70
- Barnyardgrass plant response rating (barnyardgrass [1]; 125 g ai/ha): 20
- Barnyardgrass plant response rating (barnyardgrass [1]; 500 g ai/ha): 30
- Plant response rating (0 to 100 scale), Surinam Grass (Surinam grass; 125 g ai/ha): 60
- Surinam Grass plant response rating (Surinam grass; [4]): 30
- Surinam Grass plant response rating (Surinam grass; [5]): 20
- Plant response rating (0 to 100 scale), Cocklebur (cocklebur; 125 g ai/ha): 0
- Cocklebur plant response rating (cocklebur; [4]): 60
- Cocklebur plant response rating (cocklebur; [5]): 50
- Plant response rating (0 to 100 scale), Corn (corn; 125 g ai/ha): 20
- Corn plant response rating (corn; [4]): 30
- Corn plant response rating (corn; [5]): 20
- Plant response rating (0 to 100 scale), Crabgrass, Large (large crabgrass; 125 g ai/ha): 100
- Crabgrass, Large plant response rating (large crabgrass; [4]): 40
- Crabgrass, Large plant response rating (large crabgrass; [5]): 30
- Plant response rating (0 to 100 scale), Foxtail, Giant (giant foxtail; 125 g ai/ha): 70
- Foxtail, Giant plant response rating (giant foxtail; [4]): 30
- Foxtail, Giant plant response rating (giant foxtail; [5]): 20
- Lambsquarters plant response rating (lambsquarters; [4]): 80
- Lambsquarters plant response rating (lambsquarters; [5]): 70
- Plant response rating (0 to 100 scale), Morningglory (morningglory; 125 g ai/ha): 0
- Morningglory plant response rating (morningglory; [4]): 70
- Morningglory plant response rating (morningglory; [5]): 30
- Plant response rating (0 to 100 scale), Pigweed (pigweed; 125 g ai/ha): 70
- Pigweed plant response rating (pigweed; [4]): 80
- Pigweed plant response rating (pigweed; [5]): 60
- Plant response rating (0 to 100 scale), Velvetleaf (velvetleaf; 125 g ai/ha): 10
- Velvetleaf plant response rating (velvetleaf; [4]): 50
- Velvetleaf plant response rating (velvetleaf; [5]): 40
- Blackgrass plant response rating (blackgrass; [4]): 30
- Blackgrass plant response rating (blackgrass; [5]): 20
- Wheat plant response rating (wheat; [6]): 60
- Wheat plant response rating (wheat; [4]): 30
- Wheat plant response rating (wheat; [5]): 20
- Oat, Wild plant response rating (wild oat; [4]): 40
- Oat, Wild plant response rating (wild oat; [5]): 30
- Rice plant response rating (rice): 70
- Sedge, Umbrella plant response rating [2]: 80
- Ducksalad plant response rating (ducksalad): 90
- Barnyardgrass plant response rating (barnyardgrass [3]): 60

Compound: CCOC(=O)c1ccnc(NC(=O)c2nn(C(C)(C)C)nc2C)c1 [Compound 421]
- Plant response rating (0 to 100 scale), Barnyardgrass (barnyardgrass [1]; 125 g ai/ha): 0
- Barnyardgrass plant response rating (barnyardgrass [1]; 125 g ai/ha): 0
- Barnyardgrass plant response rating (barnyardgrass [1]; 500 g ai/ha): 0
- Plant response rating (0 to 100 scale), Surinam Grass (Surinam grass; 125 g ai/ha): 0
- Surinam Grass plant response rating (Surinam grass; [4]): 0
- Surinam Grass plant response rating (Surinam grass; [5]): 0
- Plant response rating (0 to 100 scale), Cocklebur (cocklebur; 125 g ai/ha): 0
- Cocklebur plant response rating (cocklebur; [4]): 0
- Cocklebur plant response rating (cocklebur; [5]): 0
- Plant response rating (0 to 100 scale), Corn (corn; 125 g ai/ha): 0
- Corn plant response rating (corn; [4]): 0
- Corn plant response rating (corn; [5]): 0
- Plant response rating (0 to 100 scale), Crabgrass, Large (large crabgrass; 125 g ai/ha): 0
- Crabgrass, Large plant response rating (large crabgrass; [4]): 0
- Crabgrass, Large plant response rating (large crabgrass; [5]): 0
- Plant response rating (0 to 100 scale), Foxtail, Giant (giant foxtail; 125 g ai/ha): 0
- Foxtail, Giant plant response rating (giant foxtail; [4]): 0
- Foxtail, Giant plant response rating (giant foxtail; [5]): 0
- Plant response rating (0 to 100 scale), Lambsquarters (lambsquarters; 125 g ai/ha, 0 is no effect, 100 is complete control, preemergence): 0
- Lambsquarters plant response rating (lambsquarters; [4]): 0
- Lambsquarters plant response rating (lambsquarters; [5]): 0
- Plant response rating (0 to 100 scale), Morningglory (morningglory; 125 g ai/ha): 0
- Morningglory plant response rating (morningglory; [4]): 0
- Morningglory plant response rating (morningglory; [5]): 0
- Plant response rating (0 to 100 scale), Pigweed (pigweed; 125 g ai/ha): 0
- Pigweed plant response rating (pigweed; [4]): 0
- Pigweed plant response rating (pigweed; [5]): 0
- Plant response rating (0 to 100 scale), Velvetleaf (velvetleaf; 125 g ai/ha): 0
- Velvetleaf plant response rating (velvetleaf; [4]): 0
- Velvetleaf plant response rating (velvetleaf; [5]): 0
- Blackgrass plant response rating (blackgrass; [4]): 20
- Blackgrass plant response rating (blackgrass; [5]): 20
- Wheat plant response rating (wheat; [6]): 0
- Wheat plant response rating (wheat; [4]): 0
- Wheat plant response rating (wheat; [5]): 0
- Oat, Wild plant response rating (wild oat; [4]): 0
- Oat, Wild plant response rating (wild oat; [5]): 0
- Rice plant response rating (rice): 0
- Sedge, Umbrella plant response rating [2]: 0
- Ducksalad plant response rating (ducksalad): 0
- Barnyardgrass plant response rating (barnyardgrass [3]): 0

From patent publication US20060069132A1, “Azolecarboxamide herbicides” (priority 2004, published 2006)
